Test system: β-AP (25-35)-treated rats
Experiment: Morris water maze, memory impairment induced by aggregated Aβ 25-35
Format: in vivo
Conditions: A β 25-35 alone
Text: Pathological features of Alzheimer's disease (AD) include extensive neuronal loss and the presence of numerous neurofibrillary tangles and senile plaques in the brain. The senile plaques contain amyloid fibrils derived from a 39-43 amino acids peptide referred to as β-amyloid or Aβ which can produce neurotoxicity. Aβ 25-35 poccesses the similar neurotoxicity and ability of self-aggregation as Aβ 1-42. Administrated aggregated Aβ 25-35 into rat's lateral cerebral ventricle induced memory impairment in Morris water maze. […] The latency for finding the platform beginning from 3th to 5th day in (-)clausenamide 8mg • kg^-1 and 40mg • kg^-1 groups was shorter than that of A β group. […] With increasing of training days, the initial heading angle became small. On the 3th day, the initial heading angle of A β group was larger than control. […] (see Tab.3)
There are four strategies for finding platform in Morris water maze: random, circle, taxis and line. In the beginning of training the search strategies for finding target is mainly circle and random, with the increasing of training, the percentage of the two strategies declined gradually, Beginning from the 3th day, declining speed in control and (-) clausenamide group was faster than A β ,(+) clausenamide and piracetam groups. Meanwhile, the appearance of taxis and line strategies in (-) clausenamide group increased markedly. Table 3a Effects of (-),(+) Clausenamide on the number of error of β-AP (25-35)-treated rats inone trial passive avoidance. Value is represented as MEAN±S.E.M.

Sequence: A β 25-35: β-amyloid fragment with neurotoxicity and self-aggregation similar to Aβ 1-42; icv induces memory impairment (GSNKGAIIGLM; Amyloid-beta protein 42; UniProt P05067 696-706, looked up, fragment)
- initial heading angle, Training days 1: 106.3±29.8
- initial heading angle, Training days 2: 98.7±30.4
- initial heading angle, Training days 3: 73.6±20.3
- initial heading angle, Training days 4: 60.6±23.8
- initial heading angle, Training days 5: 46.7±19.4

Reference: patent publication EP1348696B1, “Use of optically active clausenamides for the preparation of pharmaceutical compositions, pharmaceutical compositions containing the same” (INSTITUTE OF MATERIA MEDICA, CHINESE ACADEMY OF MEDICAL …, priority 2002, dated 2003)
